According to PubChem BioAssay AID844 (SRMLSC, 2007):
Activity calls are given as the source filed them. The rule behind the calls is not given here.

Tested on: MRP1 cells, doxorubicin viability shift, 10 uM compound
Assay: viability protection against doxorubicin, MRP-1 line – cell-based, doxorubicin EC50 shift, dose response (AID 844)
Conditions: for EC50: measured here: doxorubicin EC50 with compound

SMILES	fold increase in Dox EC50	EC50
COc1ccc(C(C)=O)cc1CSc1nnc(Nc2ccccc2C)s1	0.75 (inactive)	4.04 µM
Cc1cc(C)n(-c2nc3ccccc3nc2Nc2ccc3c(c2)OCO3)n1	0.75 (inactive)	4.02 µM
CCOC(=O)N1CCN(c2nc(-c3cccc(OC)c3)cc(C(F)(F)F)n2)CC1	1.11 (inactive)	6.02 µM
N#Cc1nc(COc2ccc(Br)cc2)oc1N1CCCCCC1	0.78 (inactive)	4.21 µM
CC1CCc2c(C(=O)OCC(=O)Nc3cccc(S(=O)(=O)N4CCCCCC4)c3)csc2C1 (stereo not given)	1.05 (inactive)	5.68 µM
CC(/C=C1\SC(=O)N(CC(=O)Nc2ccc(O)cc2)C1=O)=C\c1ccccc1	0.68 (inactive)	3.7 µM
COc1ccc(-n2ncc3c(=O)n(CC(=O)N4c5ccccc5CC4C)cnc32)cc1 (stereo not given)	0.82 (inactive)	4.44 µM
Cc1ccc(NC(=O)CSc2nc(O)cc(=O)n2C)cc1	1.34 (inactive)	7.25 µM
CCOc1ccccc1CNC(=O)c1cc2oc3ccccc3c2n1CC	1.24 (inactive)	6.7 µM
O=C(NC1CCCC1)C(c1c[nH]c2ccccc12)N(C(=O)Cn1nnc(-c2ccc(Cl)cc2)n1)c1ccccc1 (stereo not given)	0.99 (inactive)	5.35 µM
CCc1nnc(NC(=O)C2CCCN2S(=O)(=O)c2ccc(C)cc2)s1 (stereo not given)	1.04 (inactive)	5.6 µM
COc1ccc(CNc2nc3c(c(=O)n(Cc4ccc(Cl)cc4)c(=O)n3C)n2C)cc1	0.83 (inactive)	4.48 µM
CCOc1ccc(-c2nc(C#N)c(NCC(C)C)o2)cc1	1.19 (inactive)	6.4 µM
O=C(NN1C(=O)/C(=C\c2cccnc2)SC1=S)C(c1ccccc1)c1ccccc1	0.84 (inactive)	4.56 µM
O=C1c2ccsc2SCCN1Cc1c(Cl)cccc1Cl	1.19 (inactive)	6.43 µM
O=C(OC1CCc2ccccc2C1=O)c1ccccc1O (stereo not given)	0.69 (inactive)	3.73 µM
O=C(Nc1cccn(Cc2c(Cl)cccc2Cl)c1=O)c1c(Cl)cccc1Cl	1.07 (inactive)	5.79 µM
O=C(NC(=S)Nc1ccccc1N1CCOCC1)c1ccc(-c2cc(Cl)ccc2Cl)o1	1 (inactive)	5.42 µM
COc1ccc2cc(-c3cc(C(=O)O)c4ccccc4n3)ccc2c1	1.07 (inactive)	5.75 µM
Cc1onc(-c2ccccc2Cl)c1C(=O)Nc1nnc(-c2ccc(Br)cc2)s1	0.75 (inactive)	4.04 µM
CCc1nnc(NC(=O)c2ccc(S(=O)(=O)N3CCCCCC3)cc2)s1	0.9 (inactive)	4.88 µM
O=C(Nc1nc(COc2ccccc2)cs1)c1ccccc1F	1.76	9.49 µM
O=C1CC(N2CCC(n3c(=O)[nH]c4ccccc43)CC2)C(=O)N1c1ccc(F)cc1 (stereo not given)	1.41 (inactive)	7.59 µM
N#C/C(=N\Nc1ccccc1F)C(=N)N1CCCCC1	0.79 (inactive)	4.26 µM
C[C@H](C(=O)C=[N+]=[N-])N1C(=O)c2ccccc2C1=O	0.56 (inactive)	3.04 µM

SMILES	fold increase in Dox EC50	EC50
CCCn1c(C)cc(/C=C(\C#N)C(=O)OCC(=O)Nc2ccc(OC)c(Cl)c2)c1C	0.7 (inactive)	3.81 µM
C=CCNc1oc(COc2ccc(C)cc2)nc1C#N	0.66 (inactive)	3.59 µM
Cc1cc(N2CCN(c3cccc(C)c3C)CC2)nc(-c2ccccc2)n1	0.99 (inactive)	5.37 µM
CC(=O)OCC(=O)[C@@]1(O)[C@H](C)C[C@H]2[C@@H]3CCC4=CC(=O)C=C[C@]4(C)[C@@]3(F)[C@@H](O)C[C@@]21C	1 (inactive)	5.42 µM
COc1ccc(/C=N/Nc2nc(-c3ccc(Cl)cc3)cc(C(F)(F)F)n2)cc1OC	0.35 (inactive)	1.9 µM
Cc1cccc(C)c1-n1c(C)cc(/C=C2\C(=O)NN(c3ccccc3)C2=O)c1C	0.63 (inactive)	3.39 µM
COC1(OC)C(=N/O)/C(=N\O)CCC1O (stereo not given)	0.77 (inactive)	4.16 µM
O=C(CC1SC(=O)N(Cc2ccc(Cl)cc2)C1=O)Nc1nccs1 (stereo not given)	1.75	9.46 µM
CCc1ccc(NC(=O)Cn2c(=O)oc3cc(S(=O)(=O)N4CCOCC4)ccc32)cc1	1 (inactive)	5.4 µM
O=c1cc(CNc2ccc(Br)cc2)nc2sccn12	0.99 (inactive)	5.37 µM
COC(=O)c1ccc(OC)c(CSc2nnc(COc3ccc(Cl)cc3)o2)c1	1.44 (inactive)	7.77 µM
C=C(C)C(=O)NC1=NN(c2ccccc2)C(=O)C1	1.04 (inactive)	5.63 µM
COCC(=O)Nc1nnc(COc2ccc(Cl)cc2)s1	1.44 (inactive)	7.75 µM
CC(=O)N1CCN=C1SCc1ccc(Cl)cc1	1.06 (inactive)	5.75 µM
O=C(COc1nsnc1N1CCOCC1)N/N=C/c1ccccc1O	0.26 (inactive)	1.39 µM
CCC(Sc1nc2ccccc2s1)C(=O)Nc1nnc(C)s1 (stereo not given)	1.04 (inactive)	5.61 µM
COc1ccc(NC(=O)Cn2cc(C(=O)c3ccco3)c3ccccc32)cc1	0.88 (inactive)	4.74 µM
Cc1cc(NC(=O)CSc2nc(-c3ccccc3)c(C#N)c(=O)[nH]2)no1	1.51	8.14 µM
CCn1c(C)cc(/C=C2\NC(=O)N(Cc3ccc(Cl)cc3)C2=O)c1C	1.14 (inactive)	6.15 µM
CCSc1nnc(-c2ccc(C)cc2)c2ccccc12	0.61 (inactive)	3.3 µM
COc1ccc(-c2cc3nc(C)cc(N4CC(C)CC(C)C4)n3n2)cc1 (stereo not given)	0.64 (inactive)	3.45 µM
C=C1c2cc(CC)ccc2NC(=O)N1c1ccc(C)cc1	0.44 (inactive)	2.37 µM
CC1=NN(C(=O)c2ccc(Cn3nc(C)c(Br)c3C)cc2)C(O)(C(F)(F)F)C1 (stereo not given)	1.15 (inactive)	6.18 µM
COc1ccc(N2C(=O)CC(N3CCC(n4c(=O)[nH]c5ccccc54)CC3)C2=O)cc1 (stereo not given)	1.04 (inactive)	5.64 µM
Cc1ccc(NC(=O)CNC(=O)c2cccs2)cc1S(=O)(=O)Nc1ccc(Cl)cc1	1.11 (inactive)	5.97 µM

SMILES	fold increase in Dox EC50	EC50
O=C(NCCC1=CCCCC1)C1CCN(S(=O)(=O)c2cccc3cccnc23)CC1	0.43 (inactive)	2.31 µM
O=C1NC(=Nc2ccccc2)SC1Cc1cccc(Cl)c1Cl (stereo not given)	1.21 (inactive)	6.54 µM
COc1ccc(/C=N/Nc2cc(OC)ncn2)cc1	0.57 (inactive)	3.1 µM
COc1ccc(/C=N\NC(=O)c2cc(O)c(O)c(O)c2)cc1CN1CCN(c2ccc(F)cc2)CC1	0.69 (inactive)	3.74 µM
Cc1ccc2nc(NC(=O)CCNS(=O)(=O)c3cccs3)sc2c1	0.56 (inactive)	3 µM
COc1ccc(N2CCN(c3oc(COc4ccc(Cl)cc4)nc3C#N)CC2)cc1	1.64	8.88 µM
CCCCN(C(=O)Cc1cccs1)c1nnc(-c2cccnc2)s1	0.86 (inactive)	4.65 µM
S=C(NCc1ccccn1)Nc1ccccc1Cl	1.14 (inactive)	6.15 µM
O=C(c1ccco1)N1CCN=C1SCc1ccc(F)cc1	0.87 (inactive)	4.71 µM
CCCCc1ccc(-c2nc(-c3ccncc3)no2)cc1	0.76 (inactive)	4.09 µM
CCc1nnc(NC(=O)CCC(=O)N2CCN(CCOc3ccc(C)cc3)CC2)s1	1.24 (inactive)	6.7 µM
O=C(CCc1ccccc1)N/N=C/c1cc(Br)ccc1O	0.12 (inactive)	0.631 µM
C[C@]12C=CC(=O)C=C1CC[C@H]1[C@@H]3C[C@@H](O)[C@](O)(C(=O)CO)[C@@]3(C)C[C@H](O)[C@@]12F	1.41 (inactive)	7.62 µM
Cc1noc(/C=C/N(C)C)c1S(=O)(=O)N1CCCC(C(=O)NC2CCCCC2)C1 (stereo not given)	0.97 (inactive)	5.23 µM
CCc1nn2c(N)c(/C=C3\C=Nc4ccccc43)c(=O)nc2s1	1.43 (inactive)	7.74 µM
CCCCCC(=O)Nc1ccc(S(=O)(=O)Nc2ccc(Cl)nn2)cc1	1.12 (inactive)	6.04 µM
Cc1cc(C)nc(NS(=O)(=O)c2ccc(NC(=O)c3ccc4c(c3)OCO4)cc2)n1	0.94 (inactive)	5.05 µM
Cc1ccc(C(=O)Nc2nnc(C)s2)o1	1.32 (inactive)	7.14 µM
COc1ccc(C(=O)NCCn2cc(SCC(=O)Nc3nnc(C)s3)c3ccccc32)cc1	0.5 (inactive)	2.72 µM
CC(C)(C)NC(=O)c1cccc(NC(=O)Cc2ccc(Br)cc2)c1	0.97 (inactive)	5.23 µM
COc1cccc(/C=N\NC(=O)C2=NNC(=O)C2C)c1O (stereo not given)	1.2 (inactive)	6.47 µM
CCOC(=O)c1ccc(Oc2nc(NC(C)(C)C)nc(N(C)C)n2)cc1	0.82 (inactive)	4.43 µM
COC(=O)C1=C(C)NC(C)=C(C(=O)OC)C1c1ccccc1OCc1c(C)no[n+]1[O-]	0.98 (inactive)	5.32 µM
O=C(Nc1nc(-c2cccs2)c(-c2cccs2)s1)C1(c2ccccc2)CC1	0.66 (inactive)	3.58 µM
Cc1ccc(NC(=O)CCSc2nnnn2-c2ccc3c(c2)OCO3)cc1C	0.74 (inactive)	3.98 µM
